Molecules are shown by their SMILES.

The nature of this experiment: Displacement of [3H-20]-phorbol-12-13-dibutyrate from protein kinase C (alpha, beta, gamma) of mouse brain. The class given is tissue-based.
In the case of `CCCCCCCCCCCCC/C=C1\C(=O)O[C@@H](CO)[C@@H]1OC(C)=O`, the Ki came out at 200 nM.

`CCCCCCCCCCCCCC(=O)O[C@@H]1CCC(=O)O[C@H]1CO` yielded a Ki of 2800 nM.

As to `CCCCCCCCCCCCCC(=O)O[C@@H]1CC(=O)O[C@H]1CO`, the Ki turned out to be 2500 nM.

With `CCCCCCCCCCCCC/C=C1/C(=O)O[C@@H](CO)[C@@H]1OC(C)=O`, affinity was put at a Ki of 600 nM.

For the origin of these results see ChEMBL document CHEMBL1127998, “Conformationally constrained analogues of diacylglycerol. 9.1 the effect of side-chain orientation on the protein kinase C (PK-C) binding affinity of -lactones” (Bioorg Med Chem Lett, 1994).
